Reference: patent US4888345A, “4,8-disubstituted-1,2-dihydro and 1,2,3,4-tetrahydroimidazo-[1,5-a] pyrimidines” (American Cyanamid Company, priority 1988, dated 1989)

What follows are molecules tested on Brain-Specific Receptors of Rats (3H-benzodiazepine binding) (assay: Inhibition of the binding of 3H-benzodiazepine to brain-specific receptors of rats (antianxiety)). Conditions: rat cortex P2-synaptosomal fraction; 3H-diazepam (1.5 nM) or 3H-flunitrazepam (1.0 nM); 30 minutes in ice, pH 7.4; test concentration not given.
Design: species or system rat (Wistar strain)
Text: The antianxiety properties of certain of the novel compounds of the present invention have been establish in a test which measures the ability of a test compound to inhibit the binding of tritiated benzodiazepines to brain-specific receptors of mammals. A modification of the method described by R. F. Squires, et al., Nature, 266, No. 21, pg 732 (April 1977) and H. Mohler, et al., Science, 198:849 (1977) was employed.
Male albino rats (Wistar strain, weighing 150 g 200 g each) were used. The test compounds were solubilized in dimethylformamide, acetic acid, ethanol or hydrochloric acid.
Whole cortex of rats was homogenized gently in 20 volumes of ice-cold 0.32 M sucrose, centrifuged twice at 1000 g for 10 minutes and then recentrifuged at 30,000 g for 20 minutes to produce a crude P2 -synaptosomal fraction. […]
The binding assay consisted of 300 μl of the P2 -fraction suspension (0.2-0.4 mg protein), 100 μl of test drug and 100 μl of ^3 H-diazepam (1.5 nM, final concentration) or ^3 H-flunitrazepam (1.0 nM, final concentration) which was added to 1.5 ml of 50 mM Tris.HCl (pH 7.4). […] After drying at 50°-60° C. for 30 minutes, 10 ml of diluent was added and the radioactivity determined in a scintillation counter.
Inhibition of binding was calculated by the difference between total binding and binding in the presence of test compound, divided by the total binding, ×100. […]

% Inhibition of 3H-benzodiazepine binding [%] | SMILES
29 | NC(=O)c1ncn2c1NCC=C2c1ccc(N2CCOCC2)cc1 [Example 38, 1,2-Dihydro-4-[4-(4-morpholinyl)-phenyl]imidazo[1,5-a]pyrimidine-8-carboxamide]
27 | COc1cccc(C2=CCNc3c(C(N)=O)ncn32)c1 [Example 30, 1,2-Dihydro-4-(3-methoxyphenyl)-imidazo[1,5-a]pyrimidine-8-carboxamide]

Each molecule was assayed on Spontaneously Hypertensive Rats (assay: Hypotensive activity: reduction of mean arterial blood pressure in spontaneously hypertensive rats (method of Chan and Poorvin)). Conditions: gavage, two doses of 100 mg/kg or less 24 hours apart; measured 28 hours after initial dose; average MABP of the rats used 160±1.5 mm Hg.
Type: in vivo
Procedure: Certain of the novel compounds of the present invention are active hypotensive agents at nontoxic doses when administered to mammals. These compounds were tested for hypotensive activity by the method of P. S. Chan and D. Poorvin, Clinical and Experimental Hypertension, 1(6), 817-830 (1979). Male, 16 week old, spontaneously hypertensive rats of the Okamoto strain having an average mean arterial blood pressure of 160±1.5 mm of mercury are used in the test. One to 3 rats are used per test compound. A rat is dosed by gavage with a test compound, suspended in 2% pre-boiled starch at a concentration of 50 mg/ml, at a dose of 100 mg/kg of body weight or less, with 0.9% sodium chloride loading at a dose of 25 ml/kg of body weight. A second identical dose of the test compound, without sodium chloride loading is given 24 hours later. At 28 hours after the initial dose the mean arterial blood pressure is measured by the method of Chan and Poorvin vide supra. The procedure is repeated in a second and third rat when necessary.

SMILES | MABP/mm Hg (mean arterial blood pressure after dosing) [mm Hg]
NC(=O)c1ncn2c1NCC=C2c1cc(Cl)ccc1Cl [Example 28, 4-(2,5-Dichlorophenyl)-1,2-dihydroimidazo[1,5-a]-pyrimidine-8-carboxamide] | 106
NC(=O)c1ncn2c1NCC=C2c1ccccc1 [Example 29, 1,2-Dihydro-4-phenylimidazo[1,5-a]-pyrimidine-8-carboxamide] | 121
NC(=O)c1ncn2c1NCC=C2c1cccc([N+](=O)[O-])c1 [Example 35, 1,2-Dihydro-4-(3-nitrophenyl)imidazo-[1,5-a]pyrimidine-8-carboxamide] | 139
NC(=O)c1ncn2c1NCC=C2c1cccc(Cl)c1 [Example 27, 4-(3-Chlorophenyl)-1,2-dihydroimidazo[1,5-a]-pyrimidine-8-carboxamide] | 132
NC(=O)c1ncn2c1NCC=C2c1cccc(C(F)(F)F)c1 [Example 26, 1,2-Dihydro-4-[3-(trifluoromethyl)phenyl]imidazo-[1,5-a]pyrimidine-8-carboxamide] | 111
NC(=O)c1ncn2c1NCC=C2c1cccnc1 [Example 37, 1,2-Dihydro-4-(3-pyridinyl)imidazo-[1,5-a]pyrimidine-8-carboxamide] | 138
